Ends that are not written are not given here. Peptide text beside a SMILES is read from it. Where only a bound is given, the exact number is not on record here.

Consider 48 compounds from PMC8234620, “An Integrated Peptidomics and In Silico Approach to Identify Novel Anti-Diabetic Peptides in Parmigiano-Reggiano Cheese” (Biology, 2021).

Experiment [1] relates to angiotensin converting enzyme. As to conditions: cited from earlier work; for Bioactivity: ACE-inhibition: ref BIOPEP database and Milk Bioactive Peptides Database.
On the set-up of experiment [2]: method as in BIOPEP database and Milk Bioactive Peptides Database. As to conditions: ref BIOPEP database and Milk Bioactive Peptides Database; cited from earlier work.
On the set-up of experiment [3]: method as in BIOPEP database and Milk Bioactive Peptides Database. The conditions noted are these: ref BIOPEP database and Milk Bioactive Peptides Database; cited from earlier work. The source holds these as a separate data set.
On the set-up of experiment [4]: method as in BIOPEP database and Milk Bioactive Peptides Database. As to conditions: ref BIOPEP database and Milk Bioactive Peptides Database; cited from earlier work. The source holds these as a separate data set.
For the next experiment, the target named is T1, rat intestinal DPP-IV (Rattus norvegicus, UniProt P14740).
T1 construct: 10 μL of rat intestinal DPP-IV (0.1 U/mL in the assay); from tissue; host or cells: rat intestine
T1 sequence (P14740 whole entry): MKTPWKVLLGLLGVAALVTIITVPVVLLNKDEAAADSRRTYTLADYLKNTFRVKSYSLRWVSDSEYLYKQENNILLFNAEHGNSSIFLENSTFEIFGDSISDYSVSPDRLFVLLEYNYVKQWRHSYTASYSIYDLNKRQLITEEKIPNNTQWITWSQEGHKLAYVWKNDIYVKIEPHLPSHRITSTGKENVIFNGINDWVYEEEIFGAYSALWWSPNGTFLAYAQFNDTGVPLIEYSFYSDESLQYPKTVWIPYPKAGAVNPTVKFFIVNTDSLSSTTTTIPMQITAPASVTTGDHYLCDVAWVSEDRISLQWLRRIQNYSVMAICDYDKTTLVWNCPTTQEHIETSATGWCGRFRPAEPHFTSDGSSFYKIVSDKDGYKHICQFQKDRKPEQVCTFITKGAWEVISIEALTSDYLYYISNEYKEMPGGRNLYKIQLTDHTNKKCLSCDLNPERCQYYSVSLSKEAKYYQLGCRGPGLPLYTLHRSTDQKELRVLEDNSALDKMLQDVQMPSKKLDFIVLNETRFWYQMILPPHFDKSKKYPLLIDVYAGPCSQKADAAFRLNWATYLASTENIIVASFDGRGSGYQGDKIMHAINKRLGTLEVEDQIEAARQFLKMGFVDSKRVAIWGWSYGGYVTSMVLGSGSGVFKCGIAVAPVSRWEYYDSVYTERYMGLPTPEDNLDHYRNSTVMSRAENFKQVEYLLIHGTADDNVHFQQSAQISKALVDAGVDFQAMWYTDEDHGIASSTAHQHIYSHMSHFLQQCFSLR
As to the kind of experiment: Dipeptidyl peptidase IV (DPP-IV) assay. It is filed as biochemical. The conditions noted are these: synthetic peptides. Here is the method: DPP-IV assay was performed as described in Tagliazucchi et al.. Briefly, in a 96-well plate, 10 μL of rat intestinal DPP-IV (0.1 U/mL in the assay) were mixed with 145 μL of Tris-HCl buffer (pH 7.0; 0.1 mol/L) and 40 μL of different concentrations of water-soluble low-molecular weight peptide extracts. After 20 min of incubation at 37 °C, the reaction was started by the addition of 5 μL of glycine-proline-p-nitroanilide (6.4 mmol/L). The amount of released p-nitroanilide was determined after 20 min of incubation at 37 °C by reading at 405 nm in a microplate reader. Results were expressed as IC50 as reported above.
(§1) Selected peptides were then synthesized (Bio-Fab Research, Rome, Italy) and tested for their inhibitory activity against DPP-IV, α-glucosidase, and α-amylase. The assays were carried out as reported in Section 2.3. The results were expressed as IC50 values.

The target in a further experiment is yeast α-glucosidase (Saccharomyces cerevisiae, UniProt P53341). Briefly: α-Glucosidase assay. It is filed as biochemical. The conditions noted are these: for inhibition at 1000 µM: read-out: percentage of inhibition of α-glucosidase; for IC50: synthetic peptides, n.a. = not active. The method, then: α-Glucosidase assay was performed as reported in Bellesia et al., adapted to a microplate reader. The reaction was performed by mixing 66.7 μL of potassium phosphate buffer (67 mmol/L, pH 6.8), 3.3 μL of glutathione 3 mmol/L, 20 μL of different concentrations of water-soluble low-molecular weight peptide extracts, and 5 μL of yeast α-glucosidase 0.2 U/mL. After 20 min of incubation at 37 °C, the reaction was started by the addition of 5 μL of p-nitrophenyl-glucose 5 mmol/L. After a further 20 min of incubation at 37 °C, the reaction was stopped by the addition of 150 μL of Na2CO3 100 mmol/L. The amount of released p-nitrophenol was determined by reading at 405 nm with a microplate reader. Results were expressed as IC50 as reported above.
yeast α-glucosidase, sequence (P53341 whole entry): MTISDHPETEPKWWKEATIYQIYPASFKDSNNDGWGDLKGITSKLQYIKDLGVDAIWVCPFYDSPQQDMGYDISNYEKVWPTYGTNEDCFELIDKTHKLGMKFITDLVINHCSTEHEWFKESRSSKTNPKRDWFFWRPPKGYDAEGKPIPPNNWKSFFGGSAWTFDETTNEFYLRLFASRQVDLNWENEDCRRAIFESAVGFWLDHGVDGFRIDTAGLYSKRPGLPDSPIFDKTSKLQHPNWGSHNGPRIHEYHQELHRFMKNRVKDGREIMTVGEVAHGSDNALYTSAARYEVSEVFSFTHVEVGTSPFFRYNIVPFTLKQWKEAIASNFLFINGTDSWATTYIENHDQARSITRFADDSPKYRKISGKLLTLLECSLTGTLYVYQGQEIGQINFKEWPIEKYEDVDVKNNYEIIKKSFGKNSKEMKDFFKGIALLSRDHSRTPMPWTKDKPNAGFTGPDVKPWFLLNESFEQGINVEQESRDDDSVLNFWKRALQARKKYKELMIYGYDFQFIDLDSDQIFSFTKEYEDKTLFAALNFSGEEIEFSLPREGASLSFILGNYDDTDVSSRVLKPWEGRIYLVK
as §1

On the set-up of experiment [5]: method as in BIOPEP database and Milk Bioactive Peptides Database. As to conditions: ref BIOPEP database and Milk Bioactive Peptides Database; cited from earlier work. The source holds these as a separate data set.
The subject of the next experiment is DPP-IV. As to conditions: cited from earlier work; for Bioactivity: DPP-IV-inhibition: ref BIOPEP database and Milk Bioactive Peptides Database; for IC50: ref [41],[51],[52], read-out: IC50 DPP-IV, previously reported.
On the set-up of experiment [6]: method as in PMID 16899668, doi:10.1016/j.foodres.2015.12.007. The conditions noted are these: spontaneously hypertensive rats; ref [48],[49]; cited from earlier work.

In the case of “LNF (UniProt P02663 176-178, looked up, fragment) [αS2-casein f(161–163)]”, the “Bioactivity: ACE-inhibition” value in [1] was “ACE-inhibition”.

DVPSERYLG [αS1-casein f(85–93)]: the “Bioactivity: ACE-inhibition” value in experiment [1] is “ACE-inhibition”. Take “PGPIPN (UniProt P02666 78-83, looked up, fragment) [β-casein f(63–68)]”: the “Bioactivity: ACE-inhibition” value in [1] is listed as “ACE-inhibition”. Also, in experiment [2], the “Bioactivity: Immunomodulation” value is given as “Immunomodulation”. Also, the “Bioactivity: Anti-inflammatory” value in experiment [3] is recorded as “Anti-inflammatory”. Consider “DKIHPF (UniProt P02666 62-67, looked up, fragment) [β-casein f(47–52)]”, for which the “Bioactivity: ACE-inhibition” value in [1] is reported as “ACE-inhibition”. With “YQL (UniProt P02662 169-171, looked up, fragment) [αS1-casein f(154–156)]”, in experiment [4], the “Bioactivity: Antioxidant” value is “Antioxidant”. In the case of QGPIVLNPWDQVKR [αS2-casein f(101–114)], the “Bioactivity: Antioxidant” value in experiment [4] is recorded as “Antioxidant”. Regarding VVVPPF [VVVPPF], 610 ± 13.6 µM corresponded to half-maximal inhibition at rat intestinal DPP-IV (IC50). Besides, at yeast α-glucosidase, the inhibition (commonly the percentage by which the read-out fell short of the control) at 1000 µM was 22.5 ± 1% and the IC50 (usually the midpoint of a concentration-inhibition curve) is over 1000 µM. In the case of “SLPQ (UniProt P02666 84-87, looked up, fragment) [β-casein f(69–72)]”, the “Bioactivity: ACE-inhibition” value in experiment [1] is on record as “ACE-inhibition”. For the compound “LLY (UniProt P02666 206-208, looked up, fragment) [β-casein f(191–193)]”, the “Bioactivity: Antioxidant” value in experiment [4] is recorded as “Antioxidant”. In addition, the “Bioactivity: Immunomodulation” value in experiment [2] was “Immunomodulation”. Further, the “Bioactivity: Anti-inflammatory” value in experiment [3] is recorded as “Anti-inflammatory”. As for YQGPIVLNPWDQVKR [αS2-casein f(100–114)], the “Bioactivity: ACE-inhibition” value in [1] is “ACE-inhibition”. Also, in [5], the “Bioactivity: Anti-microbial” value is “Anti-microbial”. For the same compound, in [2], the “Bioactivity: Immunomodulation” value was “Immunomodulation”.

As for “DKIHP (UniProt P02666 62-66, looked up, fragment) [β-casein f(47–51)]”, in [1], the “Bioactivity: ACE-inhibition” value is “ACE-inhibition”.

Take “QEPV (UniProt P02666 209-212, looked up, fragment) [β-casein f(194–197)]”: the “Bioactivity: Immunomodulation” value in [2] was “Immunomodulation”. “QGP (UniProt P02663 116-118, looked up, fragment) [αS2-casein f(101–103)]”: the “Bioactivity: ACE-inhibition” value in experiment [1] is listed as “ACE-inhibition”. Regarding LPQ, in the experiment with DPP-IV, the “Bioactivity: DPP-IV-inhibition” value was “DPP-IV-inhibition” and the IC50 is 82 µM. In the case of “LPLP (UniProt P02666 150-153, looked up, fragment) [β-casein f(135–138)]”, the “effect on systolic blood pressure” value in experiment [6] was “powerful decreasing agents of systolic blood pressure”. Besides, the “Bioactivity: ACE-inhibition” value in experiment [1] is reported as “ACE-inhibition”. In experiment [1] (ref [47],[48],[49]), the “IC50 values against ACE” value is listed as “low”. The compound `CC(C)C[C@H](N)C(=O)N1CCC[C@H]1C(=O)N1CCC[C@H]1C(=O)N[C@H](C(=O)O)[C@@H](C)O` [LPPT] (H-LPPT-OH) registered an IC50 against rat intestinal DPP-IV of 495.3 ± 3.6 µM.

Regarding “EMPFPK (UniProt P02666 123-128, looked up, fragment) [β-casein f(108–113)]”, in experiment [1], the “Bioactivity: ACE-inhibition” value is given as “ACE-inhibition”. Besides, the “Bioactivity: Anti-microbial” value in experiment [5] is given as “Anti-microbial”. Take “FGK (UniProt P02662 47-49, looked up, fragment) [αS1-casein f(32–34)]”: in experiment [1], the “Bioactivity: ACE-inhibition” value was “ACE-inhibition”.

Consider “TVY (UniProt P02663 197-199, looked up, fragment) [αS2-casein f(182–184)]”, for which the “Bioactivity: ACE-inhibition” value in experiment [1] is reported as “ACE-inhibition”. In the case of “RELEEL (UniProt P02666 16-21, looked up, fragment) [β-casein f(1–6)]”, the “Bioactivity: Antioxidant” value in experiment [4] is recorded as “Antioxidant”. For the compound “PGPIP (UniProt P02666 78-82, looked up, fragment) [β-casein f(63–67)]”, the “Bioactivity: ACE-inhibition” value in experiment [1] is “ACE-inhibition”.

For “VEP (UniProt P02666 131-133, looked up, fragment) [β-casein f(116–118)]”, the “Bioactivity: ACE-inhibition” value in [1] was “ACE-inhibition”. With “GTQY (UniProt P02662 185-187, looked up, fragment) [αS1-casein f(170–172)]”, in experiment [1], the “Bioactivity: ACE-inhibition” value was “ACE-inhibition”. Further, the “Bioactivity: Antioxidant” value in [4] is “Antioxidant”. For “VVPP (UniProt P02666 98-101, looked up, fragment) [β-casein f(83–86)]”, in experiment [1], the “Bioactivity: ACE-inhibition” value is “ACE-inhibition”. Take “LVYPFP (UniProt P02666 73-78, looked up, fragment) [β-casein f(58–63)]”: in [1], the “Bioactivity: ACE-inhibition” value is listed as “ACE-inhibition”. Consider “YLG (UniProt P02662 106-108, looked up, fragment) [αS1-casein f(91–93)]”, for which the “Bioactivity: Antioxidant” value in experiment [4] is “Antioxidant”. With “LEE (UniProt P02666 18-20, looked up, fragment) [β-casein f(3–5)]”, the “Bioactivity: ACE-inhibition” value in experiment [1] is on record as “ACE-inhibition”. With “YQEP (UniProt P02666 208-211, looked up, fragment) [β-casein f(193–196)]”, the “Bioactivity: ACE-inhibition” value in experiment [1] is reported as “ACE-inhibition”. Regarding YQEPVLGPVRGPFPIIV [β-casein f(193–209)], the “Bioactivity: ACE-inhibition” value in [1] is reported as “ACE-inhibition”. The “Bioactivity: Anti-microbial” value in experiment [5] is “Anti-microbial”. Consider “ENLLRF (UniProt P02662 33-38, looked up, fragment) [αS1-casein f(18–23)]”, for which, in [1], the “Bioactivity: ACE-inhibition” value is recorded as “ACE-inhibition”. On rat intestinal DPP-IV, VVPPF [VVPPF] displayed an IC50 of 699 ± 11.1 µM. Also, on yeast α-glucosidase, the inhibition at 1000 µM stood at 22 ± 1.3% and the IC50 was over 1000 µM.

Take “PFPE (UniProt P02662 42-45, looked up, fragment) [αS1-casein f(27–30)]”: the “Bioactivity: ACE-inhibition” value in experiment [1] is on record as “ACE-inhibition”.

Consider VLP, for which, in experiment [1], the “Bioactivity: ACE-inhibition” value is recorded as “ACE-inhibition”.

Consider “YLGY (UniProt P02662 106-109, looked up, fragment) [αS1-casein f(91–94)]”, for which the “Bioactivity: ACE-inhibition” value in experiment [1] is “ACE-inhibition”. Further, in experiment [4], the “Bioactivity: Antioxidant” value was “Antioxidant”. In the case of “PLW (UniProt P02662 212-214, looked up, fragment) [αS1-casein f(197–199)]”, the “Bioactivity: ACE-inhibition” value in experiment [1] is “ACE-inhibition”.

Take TEDELQDKIHPF [β-casein f(41–52)]: in experiment [5], the “Bioactivity: Anti-microbial” value was “Anti-microbial”. For “FVAP (UniProt P02662 39-42, looked up, fragment) [αS1-casein f(24–27)]”, in experiment [1], the “Bioactivity: ACE-inhibition” value is “ACE-inhibition”. Consider LVYPFPGP [β-casein f(58–65)], for which the “Bioactivity: ACE-inhibition” value in experiment [1] is recorded as “ACE-inhibition”. Consider “PEL (UniProt P02662 162-164, looked up, fragment) [αS1-casein f(147–149)]”, for which the “Bioactivity: Antioxidant” value in experiment [4] is “Antioxidant”. On to YLEQLLR [αS1-casein f(94–100)], for which the “Bioactivity: Anti-microbial” value in experiment [5] is on record as “Anti-microbial”. With “WIQP (UniProt P02663 208-211, looked up, fragment) [αS2-casein f(193–196)]”, the “Bioactivity: ACE-inhibition” value in experiment [1] is “ACE-inhibition”. In addition, in the experiment with DPP-IV, the “Bioactivity: DPP-IV-inhibition” value is “DPP-IV-inhibition” and the IC50 is 237 µM. Consider “IPPL (UniProt P02666 89-92, looked up, fragment) [β-casein f(74–77)]”, for which, in the experiment with DPP-IV, the “Bioactivity: DPP-IV-inhibition” value is “DPP-IV-inhibition” and the IC50 was 429 µM.

APFPE [APFPE] came in with an IC50 against rat intestinal DPP-IV of 49.5 ± 0.5 µM. As to `O=C(O)[C@H](Cc1ccccc1)NC(=O)[C@@H]1CCCN1C(=O)[C@@H]1CCCN1` [PPF] (H-Pro-Pro-Phe-OH), the IC50 at rat intestinal DPP-IV is 142 ± 1.7 µM; at yeast α-glucosidase, over 1000 µM. Besides, the inhibition at 1000 µM on yeast α-glucosidase turned out to be 8.8 ± 1.3%. With TKVIPYVRYL [αS2-casein f(198–207)], in experiment [5], the “Bioactivity: Anti-microbial” value is recorded as “Anti-microbial”. On to IPPLTQTPV [β-casein f(74–82)], for which, in the experiment on DPP-IV, the “Bioactivity: DPP-IV-inhibition” value is listed as “DPP-IV-inhibition” and the IC50 was 465 µM. For “IVP (UniProt P02662 86-88, looked up, fragment) [αS1-casein f(71–73)]”, the “Bioactivity: ACE-inhibition” value in experiment [1] was “ACE-inhibition”. For “FFVAP (UniProt P02662 38-42, looked up, fragment) [αS1-casein f(23–27)]”, the “Bioactivity: ACE-inhibition” value in experiment [1] was “ACE-inhibition”.
